Test results: US7183067B2 (priority 2002, dated 2007)

Experiments:
concanavalin A (Con A) [1] = target: T1, concanavalin A (Con A) (Canavalia ensiformis, UniProt P02866); experiment: biochemical; type: binding
T1 construct: purchased SEIKAGAKU KOGYO

BSA = target: T2, BSA (Bos taurus, UniProt P02769); experiment: SPR measurement of ligand-introduced chip with BSA; type: binding, bovine
T2 construct: purchased SIGMA
Procedure: (§1) PBS solutions containing proteins of various concentrations were flown onto the ligand-introduced chip obtained in (5-1) by 60 μL at a flow rate of 20 μL/min so as to observe the binding and dissociating behavior of the ligand-introduced chip with each protein by an SPR measurement.
(§2) The following proteins were used. • BSA (SIGMA ALUBMUN, BOVINE) • Concanavalin A (SEIKAGAKU KOGYO) • Pea Lectin (SEIKAGAKU KOGYO) • Peanut Lectin (SEIKAGAKU KOGYO) • RCA120 (SEIKAGAKU KOGYO)
(§3) Moreover, Con A of various concentrations was acted on the ligand-introduced chip so as to conduct an SPR measurement on an interaction. Also, an SPR measurement was also conducted on an interaction with BSA and PSA so as to observe a resonant angle change.
(§4) Further, ligand-introduced chips were produced which includes 4-Mal and 4-Glc of the present invention and 2-Mal and 2-Glc serving as a comparative example immobilized thereon. Con A, BSA, PSA, RCA120, and PNA solutions of various concentrations were flown onto the ligand-introduced chips so as to observe a resonant angle change by an SPR measurement.

concanavalin A (Con A) [2] = target: T1, concanavalin A (Con A); experiment: Affinity chromatography on 4-Mal affinity column, SDS-PAGE of fractions: Con A; type: binding; details: mixed solution of Con A, PSA and BSA in PBS; elution with PBS, glucose, NaOH
Procedure: Following a general producing method of an affinity column, an affinity column including the ligand 4-Mal, obtained in Example 4, immobilized thereto. As a column carrier, Hitrap NHS-activated Hp (column volume 1 mL; manufactured by Amersham Co., Ltd.) was used. The column carrier, including a gel matrix and N-hydroxysuccinimide serving as an active group immobilized thereon through a spacer ([…] NHS group per 1 mL gel), is suitable to immobilizing onto a carrier a compound having an amino group. FIG. 6 is a schematic diagram showing the steps for preparation of an affinity column. […]
Absorbance of the fractions collected by the affinity chromatography in (6-2) was measured at a wavelength of 280 nm using an ultraviolet spectrometer. […]
The fractions (1 mL) so collected were freeze-dried and then mixed with the ion exchanged water (100 μL) so as to dissolve the fractions again. […] A ready-made gel (ATTO PAGEL-Compact AE-6000 (containing SDS 12.5%)) was set in an electrophoretic cell filled with the electrophoresis buffer solution. […]
Specifically, 12.5% acrylamide gel (ATTO PAGEL-Compact AE-6000) was used to perform SDS-PAGE, and Coomassie brilliant blue was used for dyeing, the result of which is shown in FIG. 8. […] In the Mix-3 fraction, BSA and PSA bands disappeared and only Con A band was detected. […]

neutroavidin = target: T3, neutroavidin (Gallus gallus, UniProt P02701); experiment: Immobilization of ligand onto neutroavidin-immobilized SPR sensor chip; type: binding; details: ligand solutions flown until no further increase
T3 construct: purchased PIERCE CA47105
T3 sequence (P02701 25-152): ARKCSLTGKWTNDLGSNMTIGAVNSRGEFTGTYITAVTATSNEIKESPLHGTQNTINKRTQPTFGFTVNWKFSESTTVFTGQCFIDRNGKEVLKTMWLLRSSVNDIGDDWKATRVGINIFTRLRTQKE
Procedure: The ligand-introduced chip was obtained by the following procedure. In the beginning, a sensor chip (manufactured by Japan Laser Electronics Co., Ltd.), prepared by depositing a gold thin film of 50 nm thick on a glass substrate of 13 mm×20 mm×0.7 mm, was placed in a UV ozone cleaner (product name: NL-UV253, Japan Laser Electronics Co., Ltd.) and was exposed to ultraviolet rays for 20 minutes so as to wash the surface of the sensor chip with ozone. Next, the sensor chip was immersed in a 4,4′-methanol dithiobutyrate solution (100 μM) in a Petri dish and gently shaken for 30 minutes at room temperature (product name: Bio Dancer, New Brunswick Scientific Co., Ltd.). 4-thiobutyric acid was immobilized onto the chip through a gold-sulfur bond. The chip was washed three times with ethanol. […] A surface plasmon resonant angle change then observed was monitored. […]
Next, 4.9 μM, 16.3 μM, and 49 μM 4-Mal solutions were flown onto (S) by 60 μL at a flow rate of 10 μL/min for immobilization; 0.49 μM and 4.9 μM 4-Glc solutions were flown onto (R) by 60 μL at a flow rate of 10 μL/min for immobilization. […] A resonant angle change quantity between a point of time when the resonant angle change had become constant and a point of time before the immobilization was defined as a immobilization quantity. […] In this sensorgram, the immobilization quantity of 4-Mal was 220 RU and that of 4-Gcl was 220 RU. […]

Pea Lectin (PSA) = target: T4, Pea Lectin (PSA) (Pisum sativum, UniProt P02867); experiment: SPR measurement of ligand-introduced chip with PSA; type: binding
T4 construct: purchased SEIKAGAKU KOGYO
T4 sequence (P02867 31-211 limits assumed): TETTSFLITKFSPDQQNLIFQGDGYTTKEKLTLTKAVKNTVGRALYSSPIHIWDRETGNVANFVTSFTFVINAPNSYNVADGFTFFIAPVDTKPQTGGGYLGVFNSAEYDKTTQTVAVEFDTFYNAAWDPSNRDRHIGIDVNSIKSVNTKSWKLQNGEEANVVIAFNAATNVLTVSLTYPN
T4 sequence (P02867 218-269 limits assumed): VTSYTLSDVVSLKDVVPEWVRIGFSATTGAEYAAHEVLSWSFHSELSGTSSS
Procedure: as §1, §2, §3, §4

[3] = 1.0 μM Con A, Mal ligand chip against Glc ligand chip (2-channel), PBS pH 7.4, 25° C.

| Compound | Kd (concanavalin A (Con A) [1]) | kd: dissociation velocity constant (concanavalin A (Con A) [1]; [3]) | kon (concanavalin A (Con A) [1]; 1.0 μM Con A, Mal ligand chip against Glc ligand chip (2-channel), PBS pH 7.4, 25° C., read-out: ka: binding velocity constant) | specific interaction with BSA by SPR (BSA) | retention of Con A on affinity column (concanavalin A (Con A) [2]) | ligand immobilization quantity (resonant angle change) (neutroavidin) | binding of Con A to ligand by SPR (concanavalin A (Con A) [1]) | KD (kd/ka): dissociation constant (concanavalin A (Con A) [1]; [3]) | specific interaction with PSA by SPR (Pea Lectin (PSA)) |
| --- | --- | --- | --- | --- | --- | --- | --- | --- | --- |
| O=C1N[C@H]2[C@H](CS[C@H]2CCCCC(=O)N(CCNC(=O)c2ccc(NC[C@H](O)[C@@H](O)[C@H](O[C@H]3O[C@H](CO)[C@@H](O)[C@H](O)[C@H]3O)[C@H](O)CO)cc2)CCNC(=O)c2ccc(NC[C@H](O)[C@@H](O)[C@H](O[C@H]3O[C@H](CO)[C@@H](O)[C@H](O)[C@H]3O)[C@H](O)CO)cc2)N1 [Compound 2-Mal, reference compound] | 960 ± 50 nM | 1.4 ± 0.86 s^−1 × 10^−2 | 15000 ± 8600 M⁻¹ s⁻¹ |  |  |  |  |  |  |
| O=C(CCN(CCC(=O)NCCN(CCC(=O)Nc1cccc(NCC(O)C(O)C(OC2OC(CO)C(O)C(O)C2O)C(O)CO)c1)CCC(=O)Nc1cccc(NCC(O)C(O)C(OC2OC(CO)C(O)C(O)C2O)C(O)CO)c1)C(=O)CCCCC1SCC2NC(=O)NC21)NCCN(CCC(=O)Nc1cccc(NCC(O)C(O)C(OC2OC(CO)C(O)C(O)C2O)C(O)CO)c1)CCC(=O)Nc1cccc(NCC(O)C(O)C(OC2OC(CO)C(O)C(O)C2O)C(O)CO)c1 (stereo not shown) [Compound 4-Mal] |  | 0.72 ± 0.021 s^−1 × 10^−2 |  | do not specifically interact | A majority of Con A was retained | 220 RU | firmly binds | 590 ± 60 nM | do not specifically interact |
